Drawing on patent US9682083B2, “Pyrrolo[2,3-D]pyrimidine derivatives, process for their preparation and their use as kinase inhibitors” (NERVIANO MEDICAL SCIENCES S.R.L., priority 2013, dated 2017), this text covers IC50 for 21 molecules.

Where only a bound is given, the exact number is not on record here.

Holding throughout (format): cell-based
Experiment [1] relates to A2780 ovarian carcinoma. The experiment is described as follows: In vitro cell proliferation assay (CellTiterGlo), A2780 control line. To be noted: Homo sapiens, antiproliferative activity, 72 hours exposure, non RET-dependent control cell line. As for the experimental part:
(§1) In Vitro Cell Proliferation Assay
(§2) To evaluate the antiproliferative activity of a compound of formula (I) the following human cell lines were used: A2780 ovarian carcinoma; TT and MZ-CRC-1 medullary thyroid carcinoma, harboring a mutated RET-C634W and RET-M918T receptor respectively; LC-2/ad human lung adenocarcinoma, harboring the CCDC6-RET fusion protein. Exponentially growing cells were seeded and incubated at 37° C. in a humidified 5% CO2 atmosphere using appropriate medium supplemented with 10% Fetal Bovine Serum. 24 hours following cell plating, scalar doses of the compounds dissolved in 0.1% DMSO were added to the medium and cells were exposed to drugs for either 72 hours (A2780) or 144 hours (TT, MZ-CRC-1 and LC-2/ad), according to their different proliferation rate. At the end of treatment, cell proliferation was determined by an intracellular ATP monitoring system (CellTiterGlo—Promega), following manufacturer's instructions, and using an Envision instrument (PerkinElmer) as reader. Data obtained from compound versus vehicle treated cells were compared using Assay Explorer (Symyx Technologies Inc) software. IC50 values were calculated using sigmoidal interpolation curve fitting.
(§3) In the following Table A the antiproliferative activity of representative compounds of formula (I) on two medullary thyroid carcinoma cell lines expressing the aforementioned mutated forms of RET (TT and MZ-CRC-1) and on one lung adenocarcinoma cell line harboring the aforementioned fusion form of RET (LC-2/ad) is reported. As control, the antiproliferative activity of the same compounds on an unrelated non RET-dependent cell line (A2780) is reported. All these compounds show remarkable activity on RET-driven cellular models with respect to the unrelated ones.
(In general: Cellular ATP, detected with luciferase, serves as a proxy for viable cell number.)

For experiment [2], the system named is LC-2/ad human lung adenocarcinoma, harboring the CCDC6-RET fusion protein. Put plainly: In vitro cell proliferation assay (CellTiterGlo), LC-2/ad. Particulars: antiproliferative activity, 144 h exposure. How it is done: as §1, §2, §3
In experiment [3] the test system is TT medullary thyroid carcinoma, harboring a mutated RET-C634W receptor. Put plainly: In vitro cell proliferation assay (CellTiterGlo), TT. Particulars: Homo sapiens, antiproliferative activity, 144 h exposure. How it is done: as §1, §2, §3

For orientation: IC50 means the concentration that inhibits the measured activity by half. High values mean weaker potency in that assay, low ones greater potency in that assay. With `CN1CCC(n2cc(C#Cc3cccc(C(=O)NC4CC4)c3)c3c(N)ncnc32)CC1` [cmpd 46, 3-{[4-amino-7-(1-methylpiperidin-4-yl)-7H-pyrrolo[2,3-d]pyrimidin-5-yl]ethynyl}-N-cyclopropylbenzamide], the half-inhibitory concentration (IC50) in experiment [1] was 4.32 µM; in experiment [2] it was 0.02 µM; in experiment [3], 0.023 µM.

On to `CCC(C)n1cc(C#Cc2cccc(C(=O)NC3CC3)c2)c2c(N)ncnc21` (centres unmarked) [cmpd 85, 3-{[4-amino-7-(butan-2-yl)-7H-pyrrolo[2,3-d]pyrimidin-5-yl]ethynyl}-N-cyclopropylbenzamide], for which the IC50 was found to be 1.6 µM in experiment [1], 0.024 µM in experiment [2] and 0.03 µM in experiment [3].

For the molecule `CC(C)n1cc(C#Cc2cc(C(=O)NC3CC3)ccc2C#N)c2c(N)ncnc21` [cmpd 108, 3-{[4-amino-7-(propan-2-yl)-7H-pyrrolo[2,3-d]pyrimidin-5-yl]ethynyl}-4-cyano-N-cyclopropylbenzamide], the figures for the IC50 in experiment [1], in experiment [2] and in experiment [3] were 6.11 µM, 0.045 µM and 0.023 µM, respectively.

As to `Nc1ncnc2[nH]cc(C#Cc3cccc(NC(=O)Cc4cccc(C(F)(F)F)c4)c3)c12` [cmpd 11, N-[3-(4-Amino-7H-pyrrolo[2,3-d]pyrimidin-5-ylethynyl)-phenyl]-2-(3-trifluoromethyl-phenyl)-acetamide], the IC50 in experiment [1] was 0.601 µM; in experiment [3], 0.249 µM.

As to `CN1CCC(n2cc(C#Cc3cccc(C(=O)NC4CC4)c3)c3c(N)ncnc32)C1` (centres unmarked) [cmpd 89, 3-{[4-amino-7-(1-methylpyrrolidin-3-yl)-7H-pyrrolo[2,3-d]pyrimidin-5-yl]ethynyl}-N-cyclopropylbenzamide], the figures for the half-inhibitory concentration (IC50) in experiment [1], in experiment [2] and in experiment [3] were 6.69 µM, 0.127 µM and 0.136 µM, respectively.

`CCn1c(C)c(C#Cc2cccc(C(=O)NC3CC3)c2)c2c(N)ncnc21` [cmpd 87, 3-[(4-amino-7-ethyl-6-methyl-7H-pyrrolo[2,3-d]pyrimidin-5-yl)ethynyl]-N-cyclopropylbenzamide]: the figures for the 50% inhibitory concentration (IC50) in experiment [1], in experiment [2] and in experiment [3] were 1.53 µM, 0.012 µM and 0.019 µM, respectively.

With `CCN1CCN(Cc2ccc(NC(=O)c3cccc(C#Cc4cn(C(C)C)c5ncnc(N)c45)c3)cc2C(F)(F)F)CC1` [cmpd 82, 3-{[4-amino-7-(propan-2-yl)-7H-pyrrolo[2,3-d]pyrimidin-5-yl]ethynyl}-N-{4-[(4-ethylpiperazin-1-yl)methyl]-3-(trifluoromethyl)phenyl}benzamide], the half-inhibitory concentration (IC50) in experiment [1] is 0.046 µM; in experiment [2], 0.004 µM; in experiment [3], 0.001 µM.

`Nc1ncnc2[nH]cc(C#Cc3cccc(NC(=O)c4ccccc4)c3)c12` [cmpd 9, N-{3-[(4-amino-7H-pyrrolo[2,3-d]pyrimidin-5-yl)ethynyl]phenyl}benzamide]: the IC50 in experiment [1] is 6.91 µM; in experiment [3], 0.865 µM.

`Nc1ncnc2[nH]cc(C#Cc3cccc(C(=O)NC4CC4)c3)c12` [cmpd 15, 3-[(4-amino-7H-pyrrolo[2,3-d]pyrimidin-5-yl)ethynyl]-N-cyclopropylbenzamide]: the values for the 50% inhibitory concentration (IC50) in experiment [1] and in experiment [3] were 4.37 µM and 0.192 µM, respectively.

On to `Nc1ncnc2c1c(C#Cc1cccc(C(=O)NC3CC3)c1)cn2CCF` [cmpd 86, 3-{[4-amino-7-(2-fluoroethyl)-7H-pyrrolo[2,3-d]pyrimidin-5-yl]ethynyl}-N-cyclopropylbenzamide], for which the values for the IC50 in experiment [1], in experiment [2] and in experiment [3] were 1.91 µM, 0.018 µM and 0.025 µM, respectively.

Turning to `Cc1ccc(C(=O)NC2CC2)cc1C#Cc1cn(C(C)C)c2ncnc(N)c12` [cmpd 51, 3-{[4-amino-7-(propan-2-yl)-7H-pyrrolo[2,3-d]pyrimidin-5-yl]ethynyl}-N-cyclopropyl-4-methylbenzamide], the IC50 amounted to 1.59 µM in experiment [1], 0.019 µM in experiment [2] and 0.016 µM in experiment [3].

Regarding `Nc1ncnc2c1c(C#Cc1cccc(C(=O)NC3CC3)c1)cn2CC1CCC1` [cmpd 95, 3-{[4-amino-7-(cyclobutylmethyl)-7H-pyrrolo[2,3-d]pyrimidin-5-yl]ethynyl}-N-cyclopropylbenzamide], the IC50 was 2.45 µM in experiment [1], 0.032 µM in experiment [2] and 0.06 µM in experiment [3].

With `Nc1ncnc2[nH]cc(C#Cc3cccc(NC(=O)c4cccc(F)c4)c3)c12` [cmpd 26, N-{3-[(4-amino-7H-pyrrolo[2,3-d]pyrimidin-5-yl)ethynyl]phenyl}-3-fluorobenzamide], the IC50 in experiment [1] amounted to 3.67 µM; in experiment [2], 0.49 µM; in experiment [3], 0.14 µM.

As for `COc1cccc(-n2cc(C#Cc3cccc(C(=O)NC4CC4)c3)c3c(N)ncnc32)c1` [cmpd 70, 3-{[4-amino-7-(3-methoxyphenyl)-7H-pyrrolo[2,3-d]pyrimidin-5-yl]ethynyl}-N-cyclopropylbenzamide], the figures for the IC50 in experiment [1], in experiment [2] and in experiment [3] were > 10 µM, 0.213 µM and 0.213 µM, respectively.

On to `CC(C)n1cc(C#Cc2cc(C(=O)NC3CC3)ccc2F)c2c(N)ncnc21` [cmpd 53, 3-{[4-amino-7-(propan-2-yl)-7H-pyrrolo[2,3-d]pyrimidin-5-yl]ethynyl}-N-cyclopropyl-4-fluorobenzamide], for which the values for the concentration for half-maximal inhibition (IC50) in experiment [1], in experiment [2] and in experiment [3] were 0.837 µM, 0.009 µM and 0.01 µM, respectively.

Turning to `Nc1ncnc2c1c(C#Cc1cccc(C(=O)NC3CC3)c1)cn2CC1CC1` [cmpd 99, 3-{[4-amino-7-(cyclopropylmethyl)-7H-pyrrolo[2,3-d]pyrimidin-5-yl]ethynyl}-N-cyclopropylbenzamide], the concentration for half-maximal inhibition (IC50) in experiment [1] came to 1.79 µM; in experiment [2] it was 0.019 µM; in experiment [3], 0.017 µM.

In the case of `Nc1ncnc2c1c(C#Cc1cccc(C(=O)NC3CC3)c1)cn2-c1cccnc1` [cmpd 68, 3-{[4-amino-7-(pyridin-3-yl)-7H-pyrrolo[2,3-d]pyrimidin-5-yl]ethynyl}-N-cyclopropylbenzamide], the IC50 stood at 7.18 µM in experiment [1], 0.021 µM in experiment [2] and 0.043 µM in experiment [3].

Consider `CC1(Cn2cc(C#Cc3cccc(C(=O)NC4CC4)c3)c3c(N)ncnc32)COC1` [cmpd 88, 3-({4-amino-7-[(3-methyloxetan-3-yl)methyl]-7H-pyrrolo[2,3-d]pyrimidin-5-yl}ethynyl)-N-cyclopropylbenzamide], for which the 50% inhibitory concentration (IC50) was 1.52 µM in experiment [1], 0.048 µM in experiment [2] and 0.052 µM in experiment [3].

As to `CC(C)n1cc(C#Cc2cccc(C(N)=O)c2)c2c(N)ncnc21` [cmpd 110, 3-{[4-amino-7-(propan-2-yl)-7H-pyrrolo[2,3-d]pyrimidin-5-yl]ethynyl}benzamide], the IC50 in experiment [1] was 5.88 µM; in experiment [2] it was 0.279 µM; in experiment [3], 0.227 µM.

For `CC(C)n1cc(C#Cc2cc(F)cc(C(=O)NC3CC3)c2)c2c(N)ncnc21` [cmpd 58, 3-{[4-amino-7-(propan-2-yl)-7H-pyrrolo[2,3-d]pyrimidin-5-yl]ethynyl}-N-cyclopropyl-5-fluorobenzamide], the values for the IC50 in experiment [1], in experiment [2] and in experiment [3] were 0.539 µM, 0.004 µM and 0.004 µM, respectively.

For the molecule `Cc1ccc(C(=O)Nc2cccc(C#Cc3c[nH]c4ncnc(N)c34)c2)cc1` [cmpd 31, N-{3-[(4-amino-7H-pyrrolo[2,3-d]pyrimidin-5-yl)ethynyl]phenyl}-4-methylbenzamide], the concentration for half-maximal inhibition (IC50) was determined as 4.45 µM in experiment [1] and 0.111 µM in experiment [3].
